# In PMC7759686, “Pharmacokinetics and Immunological Effects of Romidepsin in Rhesus Macaques” (Frontiers in Immunology, 2020):
# Columns and labels:
# HIV = details: cited from earlier work
# Excerpt: Because we measured the prodrug form of RMD, it is possible that the maintained concentrations are due to either greater distribution to the tissue compartments, reduced conversion of the RMD to the active, reduced form, trapping of RMD between the extracellular and interstitial spaces, or a combination of these. As ...
# CD8+ T cells = assay: T lymphocyte functional assay (PMA/ionomycin stimulation, flow cytometry); type: in vivo, rhesus macaques (Macaca mulatta)
# Protocol: To simplify the complication of RMD treatment and SIV infection, it was vital to assess the impact of RMD administration on the T-cell function, particularly on the cellular immune responses on uninfected RMs. Due to the incapability to assess the SIV-specific immune responses, the overall cytotoxic capacity of lymphocytes in the blood was assessed as follows. Frozen PBMCs were thawed, counted, and were either unstimulated or stimulated with PMA and ionomycin (Sigma, St. Louis, MO). PBMCs were stained with the following antibodies: CD3-V500 (SP34-2), CD4-APC (L200), CD8-PE-CF594 (RPA-T8), CD107a-APC-Cy7 (H4A3), Granzyme A-PerCP/Cy5.5 (CB9) (BioLegend), Granzyme B-Alexa Flour 700 (GB11), Granzyme K-FITC (GM6C3) (Santa Cruz Biotechnology, Dallas, TX), IFN-γ-FITC (4S.B3), and Perforin-PE (B-D48) (BioLegend); antibodies were from BD Biosciences unless otherwise noted. Stained PBMCs were then acquired on an LSR-II flow cytometer. Data were analyzed using FlowJo software (Treestar).
# Previous studies reported conflicting data as to whether the functionality of CTLs is diminished by RMD administration ([41], [64]). Therefore, we performed functional assays on lymphocytes collected from superficial and mesenteric LNs and intestinal resections, focusing on the overall expression of the surrogate killing marker CD107a, along with granzymes A, B, and K, IFN-γ, and perforin with PMA and ionomycin stimulation ( Figure 11 ).
# [1] = system: H3 and H4 histone acetylation in peripheral CD4+ and CD8+ T cells; assay: Histone acetylation assay (flow cytometry); type: in vivo, rhesus macaques (Macaca mulatta); details: 7 mg/m^2 4-h IV infusion
# Protocol: The efficacy of RMD treatment was assessed by monitoring histone acetylation of frozen PBMCs: at the baseline, 6 h postinfusion, and 1, 2, and 5 days postinfusion, using a flow-cytometrical method, as described ([41]). Briefly, separated PBMCs were stained for surface markers for 20 min with: CD3-APC-Cy7 (SP34-2), CD4-V500 (L200), CD8-PE (SK1), CD14-BV570 (M5E2) (BioLegend, San Diego, CA), CD28-PE-CF594 (CD28.2), CD69-BV421 (FN50), CD95-PE-Cy5 (DX2), PD-1-PE-Cy7 (EH12.2H7) (BioLegend); all antibodies were from BD Biosciences, unless otherwise stated. PBMCs were then lysed with PhosFlow Lyse/Fix buffer (BD Biosciences) for 30 min and permeabilized with Perm Buffer [0.4% Triton X-100 in PBA (Sigma)] for 10 min, followed by washing. Permeabilized PBMCs were stained with the following antibodies for intracellular markers: Ac-H4 (3HH4-2C2) (Active Motif, Carlsbad, CA, USA) and Ki-67-Alexa Flour 647 (BD Biosciences). Ac-H4 recognizes motifs on histones H3 and H4 and was conjugated to FITC using Zenon reagent kit (Invitrogen, Carlsbad, CA). Stained PBMCs were then washed, fixed with BD Stabilizing Fixative (BD Biosciences), and acquired with a LSR-II flow cytometer. Data were analyzed with FlowJo software.
# Cortisol ELISA in plasma = type: in vivo, rhesus macaques (Macaca mulatta); details: RMD-infused RMs vs saline controls (peak 6 h, decreasing from day 1); n = 3 per group
# Excerpt: Cortisol ELISA. To assess the levels of stress associated with the different animal procedures used, frozen plasma was thawed, and dilutions of either 1:16 to 1:50 were used to measure the circulating cortisol levels with a cortisol ELISA kit (ENZO, Farmingdale, NY, USA), as per manufacturer instructions. The results were read at 405 nm on a Ultrospec 2100 Pro (Amersham Biosciences, Little Chalfont, UK) and results interpolated by Prism 8.4.3 (GraphPad Software, Inc., San Diego, CA) using 4 parameter logistic curve fitting.
# PBMCs = assay: In vitro RMD impact on cell surface markers of PBMCs; type: cell-based, rhesus macaques; details: for CD3 expression (% of cells) on PBMCs: n = 3
# Protocol: To assess the RMD impact on the expression of cellular and homing markers, fresh PBMCs collected from 3 SIV-naïve RMs were subjected to either no RMD treatment or escalating doses of RMD (2, 10, and 20 ng/ml). The PBMCs were incubated with RMD in RPMI1640 supplemented with 1% Penicillin/Streptomycin, 1% HEPES buffer, 1% L-glutamine, and 5% heat-inactivated bovine calf serum for 0, 1, 2, or 5 days. PBMCs were then stained with CD3-V500, CD4-Alexa Flour 700 (L200), CD8-PE-CF594, CCR4-PE-Cy7 (1G1), CCR5-APC (3AP), CCR7-PE (3D12), CCR9-FITC (112509) (R&D Systems, Minneapolis, MN, USA), β7-PE-Cy5 (FIB504), and LIVE/DEAD Fixable Blue Dead Cell Stain Kit (Thermo Fisher Scientific); all antibodies were from BD Biosciences unless otherwise noted. Stained PBMCs were acquired on a LSR-II and data were analyzed with FlowJo software (TreeStar).
# [2] = intestine, 2 days postinfusion, pretreatment 2%
# [3] = mesenteric LN, 1 day postinfusion, pretreatment 2%
# [4] = superficial LN, 2 days postinfusion, pretreatment 1%
# [5] = superficial LN, 2 days postinfusion, pretreatment 4%
smiles,measurement,setting,value
"C/C=C1\NC(=O)[C@H]2CSSCC/C=C/[C@H](CC(=O)N[C@H](C(C)C)C(=O)N2)OC(=O)[C@H](C(C)C)NC1=O [RMD, romidepsin]",concentration found to readily reactivate HIV in vitro,HIV,5 nM
same,Granzyme K expression in CD8+ T cells,"CD8+ T cells; intestine, 2 days postinfusion, pretreatment 1%",< 1%
same,CD107a expression in CD8+ T cells,CD8+ T cells; [2],1%
same,Granzyme A expression in CD8+ T cells,CD8+ T cells; [2],< 1%
same,Perforin expression in CD8+ T cells,"CD8+ T cells; intestines, 2 days postinfusion, pretreatment 1%",< 1%
same,IFN-γ expression in CD8+ T cells,"CD8+ T cells; intestines, 2 days postinfusion, pretreatment 2%",1%
same,Granzyme B expression in CD8+ T cells,"CD8+ T cells; intestines, 2 days postinfusion, pretreatment 11%",3%
same,CD107a expression in CD8+ T cells,"CD8+ T cells; mesenteric LN, 1 day postinfusion, pretreatment 1%",< 1%
same,Granzyme K expression in CD8+ T cells,CD8+ T cells; [3],< 1%
same,Perforin expression in CD8+ T cells,CD8+ T cells; [3],< 1%
same,IFN-γ expression in CD8+ T cells,"CD8+ T cells; mesenteric LN, 1 day postinfusion, pretreatment 5%",3%
same,Granzyme B expression in CD8+ T cells,"CD8+ T cells; mesenteric LN, 2 days postinfusion, pretreatment 5%",2%
same,Granzyme A expression in CD8+ T cells,"CD8+ T cells; mesenteric LNs, 1 day postinfusion, pretreatment 1%",< 1%
same,CD107a expression in CD8+ T cells,CD8+ T cells; [4],< 1%
same,Granzyme K expression in CD8+ T cells,CD8+ T cells; [4],< 1%
same,Perforin expression in CD8+ T cells,CD8+ T cells; [4],< 1%
same,Granzyme B expression in CD8+ T cells,CD8+ T cells; [5],1%
same,IFN-γ expression in CD8+ T cells,CD8+ T cells; [5],1%
same,Granzyme A expression in CD8+ T cells,"CD8+ T cells; superficial LNs, 2 days postinfusion, pretreatment 1%",< 1%
same,time of return of histone acetylation to near baseline level,"[1]; CD4+ and CD8+ T cells, all RMs",≤ 5 days postinfusion
same,time of peak H3/H4 histone acetylation in blood CD4+ and CD8+ T cells,[1]; third RM (RM33),1 day postinfusion
same,time of peak H3/H4 histone acetylation in blood CD4+ and CD8+ T cells,[1]; two of three RMs,6 h postinfusion
same,plasma cortisol levels after infusion,Cortisol ELISA in plasma,remained elevated through 2 dpi
same,CD3 expression (% of cells) on PBMCs,"PBMCs; 2 ng/ml RMD, day 2, baseline 50%, no RMD 66%",48%
same,CD3 expression (% of cells) on PBMCs,"PBMCs; 2 ng/ml RMD, day 5, baseline 50%, no RMD 61%",20%
same,CD3 expression (% of cells) on PBMCs,"PBMCs; 10 ng/ml RMD, day 2, baseline 50%, no RMD 66%",30%
same,CD3 expression (% of cells) on PBMCs,"PBMCs; 10 ng/ml RMD, day 5, baseline 50%, no RMD 61%",16%
same,CD3 expression (% of cells) on PBMCs,"PBMCs; 20 ng/ml RMD, day 2, baseline 50%, no RMD 66%",32%
same,CD3 expression (% of cells) on PBMCs,"PBMCs; 20 ng/ml RMD, day 5, baseline 50%, no RMD 61%",19%
same,CD3 expression (% of cells) on PBMCs,"PBMCs; day 1, all dosage treatments (2, 10, 20 ng/ml)",minimal changes
same,proportions of CD4− CD8− CD3+ T cells,"PBMCs; with increasing dosages of RMD (2, 10, 20 ng/ml), p < 0.05",increased proportions
